Laboratory results: PubChem BioAssay (NCI)
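Assay format: 96-well plates, 48-hour exposure. At the GI50, growth is halved. At the TGI there is no net growth.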

Columns and labels:
Assay in all cases: growth of human tumour cells (NCI), 48 h
SF-295 CNS = tested on: SF-295 CNS
CAKI-1 renal = tested on: CAKI-1 renal
MDA-MB-231 breast = tested on: MDA-MB-231 breast
SK-MEL-2 melanoma = tested on: SK-MEL-2 melanoma
NCI/ADR-RES ovarian = tested on: NCI/ADR-RES ovarian
COLO 205 colon = tested on: COLO 205 colon
EKVX NSCLC = tested on: EKVX NSCLC
U251 CNS = tested on: U251 CNS
HOP-62 NSCLC = tested on: HOP-62 NSCLC
A498 renal = tested on: A498 renal

Compound | TGI (SF-295 CNS) [µM] | TGI (CAKI-1 renal) [µM] | TGI (MDA-MB-231 breast) [µM] | GI50 (SK-MEL-2 melanoma) [µM] | TGI (SK-MEL-2 melanoma) [µM] | GI50 (NCI/ADR-RES ovarian) [µM] | TGI (NCI/ADR-RES ovarian) [µM] | TGI (COLO 205 colon) [µM] | TGI (EKVX NSCLC) [µM] | TGI (U251 CNS) [µM] | TGI (HOP-62 NSCLC) [µM] | GI50 (A498 renal) [µM] | TGI (A498 renal) [µM] | GI50 (SF-295 CNS) [µM] | GI50 (CAKI-1 renal) [µM] | GI50 (MDA-MB-231 breast) [µM] | GI50 (COLO 205 colon) [µM] | GI50 (EKVX NSCLC) [µM] | GI50 (U251 CNS) [µM] | GI50 (HOP-62 NSCLC) [µM]
CC(=O)c1ccc2c3c1[C@H]1O[C@H]1c1cccc(c1-3)[C@@H]1O[C@H]21 | 18 | 2.67 | 4.44 | 3.79 | > 100 | 2.3 | 5.68 | 3.59 | 4.03 | 4.3 | 8.83 | 2.74 | 7.36 |  |  |  |  |  |  | 
CC(=O)O[C@@H]1C2=C(C)C3(CC3)[C@@](C)(O)C(=O)C2=C[C@@]1(C)CO | 9.87 | 13.3 | 8.92 | 1.86 | 4.43 | 0.416 | 4.11 | 3.73 | 7.56 | > 36.1 | 4.52 | 1.8 | 3.53 | 0.406 | 1.5 | 1.8 | 1.22 | 2.66 | 0.396 | 0.474
c1cc(C2CCCCC2)ccc1-c1cnc2nonc2n1 | 4.32 | 3.18 | 4.01 | 1.31 | 3.62 | 0.466 | 2.72 | 6.39 | 3.65 | 2.44 | 5.98 | 0.565 | 2.32 | 1.64 | 1.08 | 1.33 | 1.99 | 1.52 | 1.18 | 1.21
COC(=O)c1ccc(NC(=O)c2ccc(NC3=C(Cl)C(=O)N(Cc4ccccc4)C3=O)cc2)cc1 | 22 | 6.4 | 34.7 | 17.3 | 42.2 | 14 | 27 | > 100 | > 100 | 21.4 | 23.1 | 28.4 | 58.6 | 10.2 | 2.49 | 19.7 | 37 | 45.4 | 9.63 | 11.1
C=C(C)C1CCC2=CC(CC3(C)OC3C3=CC(C(=O)OC)=C(C1)O3)OC2=O (configuration not stated) | > 100 | > 100 | > 100 |  | > 100 |  | > 100 |  | > 100 | > 100 | > 100 |  | > 100 |  |  |  |  |  |  | 
Cn1cc(C2=C(c3cc[nH]c3)C(=O)NC2=O)c2ccccc21 | > 25 | > 25 | > 25 | > 25 | > 25 | > 25 | > 25 | > 25 |  | > 25 | > 25 | 8.98 | > 25 | > 25 | > 25 | > 25 | > 25 |  | > 25 | > 25
O=C(N=Nc1c(Cl)c(O)c2ccccc2c1O)C(=O)Nc1cccc(C(F)(F)F)c1 | 19.7 | 23.7 | 12.9 | 7.22 | 20.5 | 3.52 | 17.7 | 24.6 |  | 10.9 | 24.7 | 9.13 | 23.6 | 6.05 | 8.66 | 1.6 | 10.9 |  | 3.05 | 11.5
CN(C)CCNC(=O)c1cccc2c1Oc1cccc([N+](=O)[O-])c1O2 | 36.7 | 33.7 | 20.5 |  | 49.3 |  | 56.7 | 36 |  | 42.8 | 30.6 |  | 30.5 |  |  |  |  |  |  | 
